From patent publication US10597388B2, “Pyridazinone herbicides” (FMC CORPORATION, priority 2014, dated 2020)

Assays:
Test in all cases: Test E greenhouse herbicide test, pre- and postemergence
Assay type in all cases: in vivo
[1] = tested on: surinam grass (Brachiaria decumbens); settings: Preemergence
How it was run: (§1)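 Greenhouse pots; preemergence on silt loam, postemergence on plants 1- to 4-leaf (2 to 18 cm) grown in peat, vermiculite and nutrient medium. Test chemicals formulated in non-phytotoxic solvent with surfactant. Ratings taken after 14 to 21 d.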

[2] = tested on: ragweed (common ragweed, Ambrosia elatior)
How it was run: as §1

[3] = tested on: momingglory (Ipomoea coccinea); settings: Preemergence
How it was run: as §1

[4] = tested on: horseweed (Conyza canadensis)
How it was run: as §1

soybean (Glycine max) = tested on: soybean (Glycine max)
How it was run: as §1

[5] = tested on: field bindweed (Convolvulus arvensis)
How it was run: as §1

[6] = tested on: crabgrass, Brazilian (Brazilian crabgrass, Digitaria horizontalis)
How it was run: as §1

[7] = tested on: nightshade (eastern black nightshade, Solanum ptycanthum); settings: Preemergence
How it was run: as §1

[8] = tested on: panicum, fall (fall panicum, Panicum dichotomiflorum)
How it was run: as §1

[9] = tested on: goosegrass (Eleusine indica); settings: Preemergence
How it was run: as §1

[10] = tested on: foxtail, giant (giant foxtail, Setaria faberii); settings: Preemergence
How it was run: as §1

[11] = tested on: arrowleaf sida (Sida rhombifolia)
How it was run: as §1

[12] = tested on: johnsongrass (Sorghum halepense); settings: Preemergence
How it was run: as §1

[13] = tested on: pigweed, palmer (palmer pigweed, Amaranthus palmeri)
How it was run: as §1

[14] = tested on: barnyardgrass (Echinochloa crus-galli)
How it was run: as §1

[15] = tested on: crabgrass, large (large crabgrass, Digitaria sanguinalis); settings: Preemergence
How it was run: as §1

[16] = 62 g ai/ha, scale 0 to 100 (0 no effect, 100 complete control)
[17] = 125 g ai/ha, scale 0 to 100 (0 no effect, 100 complete control)
[18] = 31 g ai/ha, scale 0 to 100, 0 no effect, 100 complete control
[19] = 250 g ai/ha, visual, scale 0 no effect to 100 complete control
[20] = 62 g ai/ha, Postemergence, scale 0 to 100 (0 no effect, 100 complete control)
[21] = 62 g ai/ha, Preemergence, scale 0 to 100 (0 no effect, 100 complete control)
[22] = 125 g ai/ha, Postemergence, scale 0 to 100 (0 no effect, 100 complete control)
[23] = 125 g ai/ha, Preemergence, scale 0 to 100 (0 no effect, 100 complete control)
[24] = 250 g ai/ha, Postemergence, scale 0 to 100 (0 no effect, 100 complete control)
[25] = Postemergence, 31 g ai/ha, visual, scale 0 no effect to 100 complete control
[26] = Preemergence, 31 g ai/ha, scale 0 to 100, 0 no effect, 100 complete control
[27] = Preemergence, 250 g ai/ha, visual, scale 0 no effect to 100 complete control

Cc1ccc2sc(Br)c(-c3c(O)c(C)nn(C)c3=O)c2c1 [Compound 79]
Plant response rating, Surinam Grass [1, 16]: 50
Plant response rating, Surinam Grass [1, 17]: 60
Plant response rating, Surinam Grass [1, 18]: 40
Plant response rating, Surinam Grass [1, 19]: 80
Plant response rating, Ragweed [2, 20]: 98
Plant response rating, Ragweed [2, 21]: 100
Plant response rating, Ragweed [2, 22]: 95
Plant response rating, Ragweed [2, 23]: 100
Plant response rating, Ragweed [2, 24]: 100
Plant response rating, Ragweed [2, 25]: 90
Plant response rating, Ragweed [2, 26]: 100
Plant response rating, Ragweed [2, 27]: 100
Plant response rating, Morningglory [3, 16]: 85
Plant response rating, Morningglory [3, 17]: 90
Plant response rating, Morningglory [3, 18]: 60
Plant response rating, Morningglory [3, 19]: 100
Plant response rating, Horseweed [4, 20]: 95
Plant response rating, Horseweed [4, 21]: 100
Plant response rating, Horseweed [4, 22]: 95
Plant response rating, Horseweed [4, 23]: 100
Plant response rating, Horseweed [4, 24]: 90
Plant response rating, Horseweed [4, 25]: 90
Plant response rating, Horseweed [4, 26]: 100
Plant response rating, Horseweed [4, 27]: 100
Plant response rating, Soybean (soybean (Glycine max); [20]): 10
Plant response rating, Soybean (soybean (Glycine max); [21]): 50
Plant response rating, Soybean (soybean (Glycine max); [22]): 15
Plant response rating, Soybean (soybean (Glycine max); [23]): 40
Plant response rating, Soybean (soybean (Glycine max); [24]): 10
Plant response rating, Soybean (soybean (Glycine max); [25]): 0
Plant response rating, Soybean (soybean (Glycine max); [26]): 40
Plant response rating, Soybean (soybean (Glycine max); [27]): 50
Plant response rating, Field Bindweed [5, 20]: 95
Plant response rating, Field Bindweed [5, 21]: 90
Plant response rating, Field Bindweed [5, 22]: 95
Plant response rating, Field Bindweed [5, 23]: 100
Plant response rating, Field Bindweed [5, 24]: 95
Plant response rating, Field Bindweed [5, 25]: 80
Plant response rating, Field Bindweed [5, 26]: 60
Plant response rating, Field Bindweed [5, 27]: 100
Plant response rating, Crabgrass, Brazil [6, 20]: 20
Plant response rating, Crabgrass, Brazil [6, 21]: 30
Plant response rating, Crabgrass, Brazil [6, 22]: 25
Plant response rating, Crabgrass, Brazil [6, 23]: 80
Plant response rating, Crabgrass, Brazil [6, 24]: 40
Plant response rating, Crabgrass, Brazil [6, 25]: 20
Plant response rating, Crabgrass, Brazil [6, 27]: 100
Plant response rating, Nightshade [7, 16]: 100
Plant response rating, Nightshade [7, 17]: 100
Plant response rating, Nightshade [7, 18]: 80
Plant response rating, Nightshade [7, 19]: 100
Plant response rating, Panicum, Fall [8, 20]: 60
Plant response rating, Panicum, Fall [8, 21]: 70
Plant response rating, Panicum, Fall [8, 22]: 60
Plant response rating, Panicum, Fall [8, 23]: 80
Plant response rating, Panicum, Fall [8, 24]: 75
Plant response rating, Panicum, Fall [8, 25]: 55
Plant response rating, Panicum, Fall [8, 26]: 80
Plant response rating, Panicum, Fall [8, 27]: 90
Plant response rating, Goosegrass [9, 16]: 60
Plant response rating, Goosegrass [9, 17]: 60
Plant response rating, Goosegrass [9, 18]: 50
Plant response rating, Goosegrass [9, 19]: 65
Plant response rating, Foxtail, Giant [10, 16]: 70
Plant response rating, Foxtail, Giant [10, 17]: 85
Plant response rating, Foxtail, Giant [10, 18]: 60
Plant response rating, Foxtail, Giant [10, 19]: 90
Plant response rating, Arrowleaf Sida [11, 20]: 50
Plant response rating, Arrowleaf Sida [11, 21]: 80
Plant response rating, Arrowleaf Sida [11, 22]: 60
Plant response rating, Arrowleaf Sida [11, 23]: 75
Plant response rating, Arrowleaf Sida [11, 24]: 70
Plant response rating, Arrowleaf Sida [11, 25]: 50
Plant response rating, Arrowleaf Sida [11, 26]: 75
Plant response rating, Arrowleaf Sida [11, 27]: 75
Plant response rating, Johnsongrass [12, 18]: 70
Plant response rating, Johnsongrass [12, 19]: 65
Plant response rating, Pigweed, Palmer [13, 20]: 35
Plant response rating, Pigweed, Palmer [13, 21]: 70
Plant response rating, Pigweed, Palmer [13, 22]: 40
Plant response rating, Pigweed, Palmer [13, 23]: 70
Plant response rating, Pigweed, Palmer [13, 24]: 75
Plant response rating, Pigweed, Palmer [13, 25]: 40
Plant response rating, Pigweed, Palmer [13, 26]: 75
Plant response rating, Pigweed, Palmer [13, 27]: 75
Plant response rating, Barnyardgrass [14, 20]: 15
Plant response rating, Barnyardgrass [14, 21]: 30
Plant response rating, Barnyardgrass [14, 22]: 20
Plant response rating, Barnyardgrass [14, 23]: 40
Plant response rating, Barnyardgrass [14, 24]: 20
Plant response rating, Barnyardgrass [14, 25]: 15
Plant response rating, Barnyardgrass [14, 26]: 30
Plant response rating, Barnyardgrass [14, 27]: 50
Plant response rating, Crabgrass, Large [15, 16]: 0
Plant response rating, Crabgrass, Large [15, 17]: 20
Plant response rating, Crabgrass, Large [15, 18]: 0
Plant response rating, Crabgrass, Large [15, 19]: 30
